Series [1] relates to MCT-induced pulmonary hypertension. Particulars: reported in the literature; cited from earlier work.
Series [2] can be described thus: Tolerability during 10-day dosing in MCT rats (body weight, activity level). It is filed as in vivo, Sprague-Dawley rats. On the procedure:
(§1) Adult male Sprague-Dawley rats (250-350 g) (3 groups; n=5 per group) were treated with a single subcutaneous injection of monocrotaline (MCT; 60 mg/kg), a plant poison that induces a well-characterized experimental model of pulmonary hypertension, or an equivalent volume of saline (2 ml/kg; control). […] At the conclusion of the 10-day dosing period, rats were anesthetized and instrumented, and resting hemodynamic indices were recorded.

A short description of series [3]: Solubility in solvents and aqueous liquids.
In series [4] the test system is MCT-induced histological alterations in the lung. The series can be described thus: Lung histology (optical microscopy) in the MCT rat pulmonary hypertension model. It is filed as in vivo, Sprague-Dawley rats. Particulars: for Fibrosis score: 10 days starting 38 days after MCT; for Effect on histological lung injury (alveolar damage, inflammatory cell infiltrate, vascular smooth muscle hypertrophy), in words: groups 3 and 4 versus vehicle control (group 2). On the procedure: as §1
The lower lobe of the right lung was fixed with formalin solution. After paraffin embedding, […] sections were stained with haematoxylin and eosin and observed in a Dialux 22 Leitz (Wetziar, Germany) microscope. The score of lung fibrosis was assessed on sections stained with Masson Trichrome staining. For morphometric evaluations, all three lobes of right lung were inspected. […] Results are expressed as the percentage of vessels presenting indices of disease relative to the total number of vessels counted in the sections.

Series [5] has as its system MCT-induced pulmonary hypertension. The series can be described thus: Mean pulmonary arterial pressure in the monocrotaline (MCT) rat pulmonary hypertension model. Particulars: 10 days of therapy starting 38 days after MCT. It is filed as in vivo, Sprague-Dawley rats. On the procedure:
as §1
Rats were anesthetized with intramuscular ketamine (90 mg/kg) and pentobarbital sodium (15 mg/kg). The trachea was exposed and cannulated with a plastic tube that was connected to a Harvard ventilator. The animals were ventilated with room air at a tidal volume of 1.5 ml at a rate of 100 breaths/minute. A polyethylene catheter (PE-50) was inserted into the right carotid artery to measure the mean systemic arterial pressure (SAP). A polyvinyl (PV-1) catheter was inserted through the right jugular vein via the right atrium and ventricle into the pulmonary artery for measurement of the mean pulmonary arterial pressure (MPAP).

The mark [6] stands for this setting: Group 3: MCT + compound 1a, 1.5 mg/kg/day BID, IP.
[7] abbreviates: Group 4: MCT + compound 1a, 2 mg/kg/day BID, PO.
Where [8] appears, read: listed as 3-nitratomethyl-2,2,5,5-tetramethylpyrrolidinyloxy.

Consider 2 compounds from US20130102591A1, “COMPOSITIONS AND METHODS FOR PREVENTION AND TREATMENT OF PULMONARY HYPERTENSION” (priority 2010, published 2013).

Entries after “also recorded” stand apart in the source; their conditions may differ.

Consider `COc1ccccc1Oc1c(NS(=O)(=O)c2ccc(C(C)(C)C)cc2)nc(-c2ncccn2)nc1OCCO` [bosentan], for which, in series [1], the “Effect in the same rodent model with comparably delayed initiation of therapy” value is “no effect”.

For `CC1(C)CC(CO[N+](=O)[O-])C(C)(C)N1[O]` (centres unmarked) [compound 1a, 3-nitratomethyl-2,2,5,5-tetramethylpyrrolidinyloxy], in series [2], the “Effect on body weight or activity level” value is recorded as “absence of any effect” and the Tolerability result was “well tolerated”. The “Solubility in ethyl acetate and dimethylsulfoxide (DMSO)” value in series [3] is recorded as “soluble”. Besides, the “Solubility in non-toxic aqueous liquids suitable for human administration” value in series [3] (water, saline, dextrose solution, polyethylene glycol) is on record as “insoluble”. The “Protection by chronic oral (enteral) treatment compared with IP treatment” value in series [4] (2 mg/kg/day PO versus 1.5 mg/kg/day BID IP) is “slightly more protective”. For the same compound, in series [4] (setting [6]), the Alveolar damage is 0.50 ± 0.35, the Angioedema score was 10.00 ± 8.86 percentage of vessels, the Muscolaris thickening score is reported as 0.00 ± 0.00 percentage of vessels and the Perivascular infiltrate score is recorded as 5.95 ± 5.71 percentage of vessels. Besides, in series [4] (setting [6]), the Fibrosis score was determined as 0.80 ± 0.57. In series [4] (setting [7]), the Alveolar damage is listed as 0.70 ± 0.45, the Angioedema score is listed as 7.00 ± 2.78 percentage of vessels, the Muscolaris thickening score is given as 0.00 ± 0.00 percentage of vessels and the Perivascular infiltrate score is 6.06 ± 2.44 percentage of vessels. In addition, the Fibrosis score in series [4] (setting [7]) is 1.00 ± 0.79. The “Effect on histological lung injury (alveolar damage, inflammatory cell infiltrate, vascular smooth muscle hypertrophy), in words” value in series [4] is listed as “significantly reduced; also recorded: remarkably reduced”. For the same compound, the “Effect on histological lung injury (alveolar damage, inflammatory cell infiltrate, vascular smooth muscle hypertrophy), in words” value in series [4] (setting [8]) was “significantly reduced”. Besides, the “Effect on elevation of pulmonary (arterial) hypertension, in words” value in series [5] is recorded as “highly effective; also recorded: significantly reduced”. Also, the “Effect on elevation of pulmonary (arterial) hypertension, in words” value in series [5] (setting [8]) was “significantly reduced”.
